One test addresses fXa (Homo sapiens, UniProt P00742). As to conditions: Z-D-Arg-Gly-Arg-pNA substrate; according to the literature; read-out: IC50, amidolytic activity of fXa; cited from earlier work.
Test [1] deals with citrate plasma coagulation (PT). Description: Prothrombin time (PT) plasma clotting test. The class given is biochemical. Particulars: concentration doubling clotting time. As to the method:
(§1) Anticoagutant activity (i.e. inhibition of the proteolytic reactions in the process) is measured by anticoagulant tests, e.g. by the thrombin time (TT), activated partial thromboplastin time (APTT) and prothrombin time (PT) tests [E. J. W. Bovie et al; Mayo Clinic Laboratory Manual of Hemostasis; W. B. Sanuders Co., Philadelphia (1971)]. Plasma, inhibited in spontaneous coagulation, e.g. citrate-plasma, is made to coagulate and the required coagulation time is measured. Upon the action of anticoagulants the coagulation time is prolonged proportionally to the inhibition of the reaction(s) in the process. The anticoagulant effect can be characterized by the substance concentration required to double the coagulation time compared to the control (IC50). The effect of anticoagulants on individual coagulant proteases is measured by the amidolytic method [R. Lottenberg et al., Methods in Enzymol. 80, 341 (1981); G. Cleason, Blood Coagulation and Fibrinolysis 5, 411 (1994)]. The isolated active factor (e.g. thrombin, fXa) and its chromogen or fluorogen peptide-amide substrate are reacted in the presence or absence of the inhibitor, resp. The enzyme inhibiting action is characterized by the inhibitory constant (IC50) measured during amidolysis.
(§2) In the TT test coagulation is initiated by the thrombin added to the citrate plasma. In the system 22 pmol/mL of thrombin is functioning and in the presence of plasma components its inhibition can be measured on the fibrinogen (one of the natural substrates of thrombin) present In the APTT and PT tests the full coagulation process is made to proceed. Depending on the activator fX is activated by the extrinsic or intrinsic pathway. The generated fXa activates prothrombin to thrombin which, in turn, triggers plasma coagulation. In the test the coagulation time is prolonged if the enzymes or one of them is inhibited by the inhibitor. In the APTT and PT tests at most 40 pmole/ml Xa is generated (this is the full amount of factor X present in both systems) while 150 pmole/ml (APTT) and 350 pmole/ml (PT) are generated from thrombin [B Kaiser et al., Thromb. Res. 65, 157 (1992)].
(§3) The in vitro anticoagulant effect of the compounds of general formula (I) was measured by the prothrombin time (PT), activated partial thromboplastin time (APTT) and thrombin time (TT) tests [D. Bagdy et at., Thromb. Haemost. 67, 325 (1992)]. The Xa-factor-inhibiting effect of the compounds was also determined by using the Bz-Ile-Glu-Gly-Arg-pNA chromogen substrate (see method M6).

In test [2] the target is T1, thrombin (Homo sapiens, UniProt P00734).
T1 construct: The isolated active factor (e.g. thrombin, fXa) and its chromogen or fluorogen peptide-amide substrate are reacted
In words: Thrombin time (TT) plasma clotting test. In kind it is biochemical. Particulars: concentration doubling clotting time. The procedure: as §1, §2, §3

For a further test, the target named is T2, human factor Xa (Homo sapiens, UniProt P00742).
T2 construct: purchased SIGMA
T2 sequence (P00742 235-488 limits assumed): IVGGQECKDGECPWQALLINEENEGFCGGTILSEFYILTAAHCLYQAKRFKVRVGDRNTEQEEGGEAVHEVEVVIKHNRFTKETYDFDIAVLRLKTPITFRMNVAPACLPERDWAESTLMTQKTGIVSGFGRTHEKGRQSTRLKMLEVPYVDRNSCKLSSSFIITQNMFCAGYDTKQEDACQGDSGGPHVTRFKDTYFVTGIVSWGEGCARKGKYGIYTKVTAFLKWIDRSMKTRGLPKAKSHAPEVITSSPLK
T2 sequence (P00742 41-179 partner limits assumed): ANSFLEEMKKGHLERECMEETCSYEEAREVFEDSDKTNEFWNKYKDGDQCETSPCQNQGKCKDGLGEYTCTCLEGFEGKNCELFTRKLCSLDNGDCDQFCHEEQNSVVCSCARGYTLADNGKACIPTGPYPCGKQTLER
In words: Inhibition of the amidolytic effect of factor Xa in solution on Bz-Ile-Glu-Gly-Arg-pNA (method M6). The class given is biochemical. The procedure: as §1, §3
Assay of the Inhibition of Factor Xa in Solution on a 96-well Microtiter Plate
a) 1.3 U/mL factor Xa (human, SIGMA), 0.1-1.0-10 and 100 μg/mL solutions in phosphate buffer (0.1 M sodium phosphate and 0.05 M sodium chloride, pH 7.4) of the peptide inhibitors and […] solutions of the substrate Bz-Ile-Glu-Gly-Arg-pNA in distilled water are used.
b) Three reaction mixtures are prepared from the control and each peptide solution. 30 μL each of the peptide and the buffer, serving as control, 30 μL factor Xa, 90 μL butter and 150 μL substrate are placed in the wells of the plate, then after 10 minutes the extinction values are read at 405 nm The procedure is continued as described in Method M2, point c).

For test [3], the system named is citrate plasma coagulation (APTT). Description: Activated partial thromboplastin time (APTT) plasma clotting test. In kind it is biochemical. As to conditions: concentration doubling clotting time. As to the method:
as §1, §2, §3

The next test deals with plasmin (PL) (Homo sapiens, UniProt P00747). In words: Fibrin-plate method, plasmin. The class given is biochemical. Particulars: for IC50: fibrin-plate method, hydrolyzed area reduced by 50%. The text has this: (§4) The inhibitory effect of the new compounds of the invention on plasmin (PL) as well as on plasmin formation induced by tissue plasminagen activator (tPA) and urokinase (UK) was studied by the […] [D. Bagdy et al.; Thromb. Haemost. 67, 325 (1992)]. Compounds C1 and C3 served as controls. […] V. Jackson et al., J. Cardiovasc. Pharmacol. 21, 587 (1993)].
Chain of plasmin (PL) (P00747 581-810 limits assumed, species assumed): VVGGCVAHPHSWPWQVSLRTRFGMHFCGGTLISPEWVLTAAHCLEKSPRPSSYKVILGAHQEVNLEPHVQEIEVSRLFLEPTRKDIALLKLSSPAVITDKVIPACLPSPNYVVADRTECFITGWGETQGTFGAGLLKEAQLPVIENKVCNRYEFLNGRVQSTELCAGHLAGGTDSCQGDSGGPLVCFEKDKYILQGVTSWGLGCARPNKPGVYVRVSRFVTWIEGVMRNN
Chain of plasmin (PL) (P00747 97-580 partner limits assumed, species assumed): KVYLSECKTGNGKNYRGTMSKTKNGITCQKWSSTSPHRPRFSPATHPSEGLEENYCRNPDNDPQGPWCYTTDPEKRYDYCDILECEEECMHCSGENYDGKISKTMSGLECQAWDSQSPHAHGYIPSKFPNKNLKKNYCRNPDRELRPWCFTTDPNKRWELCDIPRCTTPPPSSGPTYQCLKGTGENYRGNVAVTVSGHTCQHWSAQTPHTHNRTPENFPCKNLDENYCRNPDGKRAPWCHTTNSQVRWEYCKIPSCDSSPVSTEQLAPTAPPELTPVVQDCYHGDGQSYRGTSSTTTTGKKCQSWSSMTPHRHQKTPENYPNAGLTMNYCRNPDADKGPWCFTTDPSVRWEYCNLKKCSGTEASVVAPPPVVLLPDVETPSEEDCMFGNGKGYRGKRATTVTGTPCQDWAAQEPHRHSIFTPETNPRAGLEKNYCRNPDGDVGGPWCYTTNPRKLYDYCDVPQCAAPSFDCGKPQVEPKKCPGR

(§5) ^a IC50 = peptide concentration (mM) where the hydrolyzed area o
(§6) the fibrin plate is reduced by 50% compared to the control

In test [4] the target is tissue plasminogen activator (tPA) (Homo sapiens, UniProt P00750). Description: Fibrin-plate method, plasmin formation induced by tPA. As to conditions: for IC50: fibrin-plate method, hydrolyzed area reduced by 50%. In kind it is biochemical.
Chain of tissue plasminogen activator (tPA) (P00750 36-562, species assumed): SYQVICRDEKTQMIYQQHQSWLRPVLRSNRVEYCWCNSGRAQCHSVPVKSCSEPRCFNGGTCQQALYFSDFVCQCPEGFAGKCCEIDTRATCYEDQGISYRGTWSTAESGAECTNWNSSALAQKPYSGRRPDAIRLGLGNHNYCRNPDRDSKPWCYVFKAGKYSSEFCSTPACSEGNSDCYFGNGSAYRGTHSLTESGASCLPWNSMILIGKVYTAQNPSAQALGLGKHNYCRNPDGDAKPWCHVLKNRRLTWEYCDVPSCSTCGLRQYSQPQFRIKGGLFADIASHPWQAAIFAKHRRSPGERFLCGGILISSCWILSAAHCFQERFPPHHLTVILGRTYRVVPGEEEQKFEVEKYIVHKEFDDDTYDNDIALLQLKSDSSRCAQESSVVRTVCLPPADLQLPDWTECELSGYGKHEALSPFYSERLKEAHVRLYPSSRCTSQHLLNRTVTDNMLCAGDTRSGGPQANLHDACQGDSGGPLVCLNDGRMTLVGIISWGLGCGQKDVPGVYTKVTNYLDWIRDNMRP
Excerpt: as §4, §5, §6

For a further test, the target named is urokinase (UK) (Homo sapiens, UniProt P00749). Description: Fibrin-plate method, plasmin formation induced by urokinase. In kind it is biochemical. Particulars: for IC50: fibrin-plate method, hydrolyzed area reduced by 50%.
Excerpt: as §4, §5, §6

For test [5], the system named is citrate plasma coagulation (PT). Particulars: Table 1; published value; read-out: B: IC50, PT; cited from earlier work.
Test [6] addresses T1, thrombin. As to conditions: specific fXa inhibitors, literature; cited from earlier work.
For test [7], the system named is citrate plasma coagulation (APTT). Particulars: Table 1; published value; read-out: B: IC50, APTT; cited from earlier work.
The target of test [8] is T3, plasma clot entrapped thrombin (Homo sapiens, UniProt P00734).
T3 construct: Here prothrombin is converted to thrombin; from tissue; host or cells: clot of recalcified platelet-rich human citrate plasma
Description: Inhibition of thrombin entrapped in plasma clot (methods M1, M3). In kind it is biochemical. Particulars: platelet-rich human plasma clot; Tos-Gly-Pro-Arg-pNA substrate. As to the method:
(§7) The plasma clot was obtained by the recalcification of platelet-rich human citrate plasma and fibrin gel by the coagulation of human fibrinogen with human thrombin Z-D-Arg-Gly-Arg-pNA and Tos Gly-Pro-Arg-pNA were used as substrates for measuring the activity of factor Xa and thrombin (methods M1-M5).
Preparation of Plasma Clot
a) Platelet-rich plasma (PRP) is prepared by centrifuging a 9:1 mixture of human blood and 3.8% aqueous sodium citrate solution (1/2) for 5 minutes at 240×g.
b) 200 μL of PRP are placed in each reaction vessel, 80 μL of 40 mM calcium chloride solution is added and the mixture is left to stand at room temperature for one hour. The plasma clot formed is rinsed mildly with 6×2 ml of 0.9% sodium chloride solution followed by 5 minute sedimentation to remove the dissolved enzymes (factor Xa and thrombin). The thrombin content of the washings is assayed as follows.
c) To 400 μL of washing liquid 100 μL of 1 mM Tos-Gly-Pro-Arg-pNA substrate solution is added and the mixture is incubated for 30 minutes at 37° C., then the reaction is stopped by the addition of 100 μL of 50% acetic acid. 150 μL portions of this mixture are transferred into the wells of the 96-well microtiter plate and the extinction is measured at 405 nm (ELISA READER SLT Laborinstrument GmbH, Austria). When the washing is successful, the extinction is less than 5% of the control
Assay of the Inhibition of Thrombin Entrapped in Plasma Clot
a) Peptide inhibitor solutions are prepared by the process described in Method M2, point a).
b) After draining the washing liquid, 400 μL of the peptide solution (3 parallel samples for each concentration) and 400 μL of buffer, serving as control, are placed on the clot (Method M1) and the mixture is incubated for 5 minutes at 37° C. Thereafter 100 μL of […] Tos-Gly-Pro-Arg-pNA substrate solution is added and incubation at 37° C. is continued for further 30 minutes, then the reaction is stopped by the addition of 100 μL of 50% acetic acid. The operation is continued as described in Method M2, point c).

Test [9] addresses T4, fibrin-gel bound thrombin (Homo sapiens, UniProt P00734).
T4 construct: Here prothrombin is converted to thrombin; purchased SIGMA
In words: Inhibition of thrombin bound to fibrin-gel (methods M4, M5). In kind it is biochemical. As to conditions: Tos-Gly-Pro-Arg-pNA substrate. The procedure: as §7
Preparation of Fibrin-Gel
a) 200 μL of 6 mg/mL human fibrinogen (SIGMA), 25 μL of 25 NIH U/mL human thrombin (SIGMA) and 40 μL of 100 mM calcium chloride solution are placed in each reaction vessel and the mixtures are stored for one hour at 20-22° C. The fibrin formed is rinsed mildly with 3×2 ml of isotonic saline solution followed by sedimentation to remove the thrombin content of the solution. The efficacy of rinsing is controlled by the process described in Method M1, point c).
Assay of the Inhibition of Thrombin Bound to Fibrin-Gel
a) 0.1-1.0-10 and 100 μg/ml solutions are prepared with Hepes/NaCl buffer (0.01 M Hepes and 0.1 M sodium chloride, pH=7.4).
b) Thereafter the procedure described in Method M3, point b) is followed.

Where [10] appears, read: Table 1, Bz-Ile-Glu-Gly-Arg-pNA chromogen substrate, read-out: A: IC50 (fXa inhibiting effect).
[11] abbreviates: Table 1, read-out: B: IC50, APTT.
Where [12] appears, read: related to the activity of C1 (1/IC50 = 1).
The mark [13] stands for this setting: Table 2, Bz-Ile-Glu-Gly-Arg-pNA, isolated human factor Xa, read-out: B: IC50 (factor Xa inhibiting effect).
The mark [14] stands for this setting: Table 2, read-out: A: IC50, APTT.

Structures can show the parent of a compound that is named as a salt. Where two headings read alike, the source gives them in different places. Square brackets hold non-standard residues; d marks the D form. Peptide text beside a SMILES is read from it. * marks the point of attachment. 1Nal = N[C@@H](Cc1cccc2ccccc12)C(=O)O; Boc = CC(C)(C)OC(=O)*

We go through 7 compounds from US6121241A, “Anticoagulant peptide aldehyde derivatives” (Gyogyszerkutato Intezet Kft., priority 1996, dated 2000).

Chain of fXa (P00742 235-488 limits assumed): as the sequence (P00742 235-488 limits assumed) above
Chain of fXa (P00742 41-179 partner limits assumed): as the sequence (P00742 41-179 partner limits assumed) above

By IC50 is commonly meant the concentration that gives 50% inhibition. With 4-MeP-Asp-Pro-Arg-H [Compound C3], the IC50 at fXa is 57 nM; in test [1] (Table 1, read-out: B: IC50, PT), 19300 nM; at thrombin [2] (Table 1, read-out: B: IC50, TT), 870 nM; at human factor Xa (setting [10]), 64 nM; in test [3] (setting [11]), 4590 nM.

With `CC(C)(C)OC(=O)N[C@H](Cc1ccccc1)C(=O)N1CCC[C@H]1C(=O)N[C@H](C=O)CCCNC(=N)N` [Boc-D-Phe-Pro-Arg-H], the IC50 at plasmin (PL) stood at 12000 nM; in test [4], 6000 nM; against urokinase (UK), 3000 nM. The “B: relative efficacy, PL” value at plasmin (PL) (setting [12]) stood at 4.5. The “B: relative efficacy, tPA” value in [4] (setting [12]) was found to be 22.0. For the same compound, the “B: relative efficacy, UK” value at urokinase (UK) (setting [12]) stood at 27.3.

Regarding `N=C(N)NCCC[C@@H](C=O)NC(=O)[C@H]1CCCN1C(=O)C(O)C1CCCC1.N=C(N)NCCC[C@@H](C=O)NC(=O)[C@H]1CCCN1C(=O)C(O)C1CCCC1.O=S(=O)(O)O` (stereo partly drawn) [Compound 2, D-2-Cyclopentyl-2-hydroxyacetyl-L-prolyl-L-arginine aldehyde hemisulfate], the “B: relative efficacy, PL” value at plasmin (PL) came out at 0.13. Further, the IC50 against plasmin (PL) was 390000 nM; in test [1] (Table 2, read-out: A: IC50, PT) it was 2030 nM; on thrombin [2] (Table 2, read-out: A: IC50, TT) it was 100 nM; in test [4], 112000 nM; on urokinase (UK), 137000 nM; on human factor Xa (setting [13]), 107 nM. Further, in [3] (setting [14]), the IC50 turned out to be 710 nM. In addition, at plasmin (PL) (versus C3 of Table 4), the “times lower activity than compound C3, first enzyme (PL)” value was found to be 7.5. Besides, the “B: relative efficacy, tPA” value in test [4] is reported as 1.2. In addition, the “times lower activity than compound C3, second enzyme (tPA)” value in test [4] (versus C3 of Table 4) was 12. Also, the “B: relative efficacy, UK” value on urokinase (UK) is reported as 0.6. Moreover, the “times lower activity than compound C3, third enzyme (UK)” value on urokinase (UK) (versus C3 of Table 4) is given as 39.

`CC(=N)N1CC[C@H](Oc2ccc([C@H](Cc3ccc4ccc(C(=N)N)cc4c3)C(=O)O)cc2)C1` [Compound C2, (+)-(2S)-2-[4[[(3S)-1-acetimidoyl-3-pyrrolidinyl]oxy]phenyl]-3-[7[amidino-2-naphthyl]-propionic acid hydrochloride pentahydrate]: the IC50 in [5] is 520 nM; in test [7], 970 nM. Also, the “activity in the TT test” value at thrombin [6] is given as “fail to exert any activity”.

With `CC(C)(C)OC(=O)N[C@H](Cc1ccccc1)C(=O)N[C@@H](Cc1cccc2ccccc12)C(=O)N[C@H](C=O)CCCN=C(N)N` [Compound C4, Boc-D-Phe-Nal(1)-Arg-H] (Boc-[dF]-[1Nal]-Arg-aldehyde), the IC50 at fXa was 30 nM; in test [1] (Table 1, read-out: B: IC50, PT) it was 53600 nM; on thrombin [2] (Table 1, read-out: B: IC50, TT), 17200 nM; on human factor Xa (setting [10]), 86 nM; in test [3] (setting [11]), 9960 nM.

Take `NC(N)=NCCC[C@@H](C=O)NC(=O)[C@@H]1CCCN1C(=O)[C@H](O)C1CCCCC1` [Compound C5, D-Hma-Pro-Arg-H]: the IC50 worked out at 270 nM in test [8]; 2140 nM in [1] (Table 2, read-out: A: IC50, PT); 220 nM on thrombin [2] (Table 2, read-out: A: IC50, TT); 247 nM at human factor Xa (setting [13]); 790 nM in test [3] (setting [14]); 220 nM in test [9].

Regarding “TAP: 60-member polypeptide isolated from tick, fXa inhibitor (YNRLCIKPRDWIDECDSNEGGERAYFRNGKGGCDSFWICPEDHTGADYYSSYRDCFNACI; UniProt P17726 1-60, looked up)”, the “activity in the TT test” value with thrombin [6] is recorded as “fail to exert any activity”.
